# Data taken from US20150196520A1, “METHOD AND PHARMACEUTICAL COMPOSITION FOR TREATING DERMATOPHYTOSIS” (priority 2012, published 2015).
# Legend:
# [1] = system: tinea unguium; experiment: Treatment of tinea unguium, case reports; type: in vivo, humans; details: Example 11: 2% test solution, big toe immersed in fingerstall; Trichophyton rubrum
# [2] = system: tinea corporis; experiment: Topical treatment of tinea corporis, case reports; type: in vivo, humans; details: Example 10: 0.01% test solution in 20% ethanol sprayed three times a day, thigh
# Description: The compounds of the present invention were investigated with respect to the treatment of dermatomycosis affecting humans. […] The cases of tinea used in the investigation involved selection of various types of tinea such as vesicular-type tinea, interdigital-type tinea, hyperkeratotic tinea, tinea corporis, tinea unguium, etc.
# The dermatophytes that cause dermatophytosis, a typical form of dermatomycosis, are mainly Trichophyton rubrum and Trichophyton mentagrophytes. […] This confirmation of dermatophytes involved planting a sample of skin or nail of an area affected with tinea in a Candida nutrient medium (Nissui Pharmaceutical Co., Ltd.), isolating the dermatophytes that grow, and then confirming the dermatophytes through gene analysis or observation of morphology. A more detailed description of the fungus identification is provided in the examples.
# A 1% test solution of ethylenediaminetetraacetic acid trisodium salt prepared in the same manner as Example 6 was applied by spraying once a day onto an area, approximately 5 cm wide and 3 cm long, of a chest affected by tinea corporis, which was denoted by flaring redness.
# To 119 mg of ethylenediaminetetraacetic acid tetrasodium salt tetrahydrate was added 20% ethanol to prepare 1 L of 0.01% test solution. This test solution was applied by spraying, three times a day, to tinea corporis denoted by red flaring ridges that had occurred on the thigh.
# [3] = system: interdigital tinea; details: Example 7: 2% test solution sprayed once daily between toes; Trichophyton rubrum
# [4] = system: T. mentagrophytes IFM 59813; experiment: CLSI broth microdilution drug-sensitivity test; type: cell-based, Trichophyton mentagrophytes; details: Trichophyton mentagrophytes, IFM59813
# Experimental: The antimicrobial activity of the pharmaceutical composition for dermatomycosis according to the present invention was evaluated through drug-susceptibility tests against major pathogenic fungi performed in compliance with the guidelines of the Clinical Laboratory Standards Institute (CLSI), USA. The pathogenic fungi selected were genus Tricophyton (T. rubrum, T. mentagrophytes, T. tonsurans), genus Microsporum (M. gypseum), genus Epidermophyton (E. floccosum), genus Candida (C. albicans), genus Aspergillus (A. fumigatus), and genus Cryptococcus (C. neoformans). […] In the drug-susceptibility tests, Mg ions and Ca ions necessary for conidia (spores) of the fungus to germinate growth were included in the nutrient medium.
# The antifungal activity of the compounds of the present invention was evaluated by performing drug-sensitivity tests against various pathogenic fungi. The testing method was a broth microdilution method in conformance with the guidelines of the Clinical Laboratory Standards Institute (CLSI), USA.
compound,measurement,setting,value
O=C([O-])CN(CCN(CC(=O)[O-])CC(=O)[O-])CC(=O)[O-].[Na+].[Na+].[Na+].[Na+] [ethylenediaminetetraacetic acid tetrasodium salt],time until healthy nail grew from the nail base,[1],approximately 2 months
same,time until recovery complete with a healthy nail,[1],6 months
same,time until redness disappeared (tinea cured),[2],approximately 2 weeks
same,time until skin symptoms disappeared and healthy skin returned,[3],approximately 2 months
same,MIC,[4],39 µg/mL
